The values below come from PMC4910395 (Bioorganic & medicinal chemistry, 2015).

Assay [1] addresses NMDA receptor (NR), channel binding site labeled with [^3H]MK-801 (Rattus norvegicus, UniProt P35439+Q00959+Q00960). Description: Inhibition of [^3H]MK-801 binding to rat cortical membranes. Particulars: for [^3H]MK-801 Ratio IC50 (30 µM spm)/IC50 (no spm): mean ratio, spermine sensitivity; for IC50: in presence of 30 µM spermine.
For assay [2], the system named is NRs in native membranes. The note with it: native membranes from rat frontoparietal cortex and hippocampus; cited from earlier work.
Assay [3] concerns the target T1, NMDA receptor (NR), [^3H]ifenprodil binding site (Rattus norvegicus, UniProt P35439+Q00960). As to the kind of experiment: biochemical.
Assay [4] deals with T1, NMDA receptor (NR), [^3H]ifenprodil binding site. Particulars: pH 7.4.
In assay [5] the target is NMDA receptor, [^3H]MK-801 binding. The note with it: read-out: IC50, inhibition of [^3H]MK-801 binding to rat brain membranes; 5, 4 and 3 methylene groups between the oxygens; cited from earlier work.
Setting [6] is: [^3H]MK-801 IC50 ± SD (n), 30 µM spm.
[7] abbreviates: read-out: [^3H]MK-801 IC50 ± SD (n), 30 µM spm.

By IC50 is commonly meant the midpoint of a concentration-inhibition curve.

Structures can show the parent of a compound that is named as a salt. Where two headings read alike, the source gives them in different places.

T1 sequence (Q00960 27-1482, other chains not shown): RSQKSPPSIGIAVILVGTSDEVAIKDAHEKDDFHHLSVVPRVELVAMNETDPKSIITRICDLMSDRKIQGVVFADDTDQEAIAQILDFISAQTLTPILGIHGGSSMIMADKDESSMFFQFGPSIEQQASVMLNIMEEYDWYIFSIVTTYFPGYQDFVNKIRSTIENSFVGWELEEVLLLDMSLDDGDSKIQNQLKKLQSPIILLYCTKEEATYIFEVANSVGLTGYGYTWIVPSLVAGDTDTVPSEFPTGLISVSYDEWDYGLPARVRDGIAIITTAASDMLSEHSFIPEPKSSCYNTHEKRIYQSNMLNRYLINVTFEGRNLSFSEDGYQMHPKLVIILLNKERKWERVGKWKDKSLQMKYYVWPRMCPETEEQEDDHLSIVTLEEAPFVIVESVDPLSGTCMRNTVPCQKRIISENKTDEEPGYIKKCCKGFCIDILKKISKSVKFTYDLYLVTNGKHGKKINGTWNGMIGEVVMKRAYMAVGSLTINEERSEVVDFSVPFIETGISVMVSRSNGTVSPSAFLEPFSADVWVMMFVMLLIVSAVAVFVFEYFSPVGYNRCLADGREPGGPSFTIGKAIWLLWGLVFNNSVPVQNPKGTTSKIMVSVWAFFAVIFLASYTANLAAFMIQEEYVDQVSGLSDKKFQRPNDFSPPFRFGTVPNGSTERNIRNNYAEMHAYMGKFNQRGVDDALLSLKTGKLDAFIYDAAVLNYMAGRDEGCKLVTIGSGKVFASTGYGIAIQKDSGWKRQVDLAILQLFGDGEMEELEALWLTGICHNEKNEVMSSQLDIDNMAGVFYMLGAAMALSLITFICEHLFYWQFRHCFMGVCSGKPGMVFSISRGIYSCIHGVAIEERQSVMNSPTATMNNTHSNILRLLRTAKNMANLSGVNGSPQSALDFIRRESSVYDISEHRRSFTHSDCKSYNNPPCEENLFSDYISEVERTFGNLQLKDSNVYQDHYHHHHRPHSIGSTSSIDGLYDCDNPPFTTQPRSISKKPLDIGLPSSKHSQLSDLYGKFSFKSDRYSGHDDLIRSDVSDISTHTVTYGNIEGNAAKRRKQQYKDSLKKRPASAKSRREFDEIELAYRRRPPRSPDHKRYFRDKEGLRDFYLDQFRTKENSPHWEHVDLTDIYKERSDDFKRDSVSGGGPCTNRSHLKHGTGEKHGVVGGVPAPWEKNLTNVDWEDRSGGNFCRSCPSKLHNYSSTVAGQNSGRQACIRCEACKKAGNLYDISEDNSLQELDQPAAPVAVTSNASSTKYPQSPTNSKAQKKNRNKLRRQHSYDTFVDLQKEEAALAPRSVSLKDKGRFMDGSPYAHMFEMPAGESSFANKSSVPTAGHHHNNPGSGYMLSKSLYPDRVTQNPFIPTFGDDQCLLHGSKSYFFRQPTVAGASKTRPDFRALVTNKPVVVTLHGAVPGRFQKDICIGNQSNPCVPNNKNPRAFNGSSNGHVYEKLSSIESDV
Chain of NMDA receptor (NR), channel binding site labeled with [^3H]MK-801 (Q00959 23-1464, other chains not shown): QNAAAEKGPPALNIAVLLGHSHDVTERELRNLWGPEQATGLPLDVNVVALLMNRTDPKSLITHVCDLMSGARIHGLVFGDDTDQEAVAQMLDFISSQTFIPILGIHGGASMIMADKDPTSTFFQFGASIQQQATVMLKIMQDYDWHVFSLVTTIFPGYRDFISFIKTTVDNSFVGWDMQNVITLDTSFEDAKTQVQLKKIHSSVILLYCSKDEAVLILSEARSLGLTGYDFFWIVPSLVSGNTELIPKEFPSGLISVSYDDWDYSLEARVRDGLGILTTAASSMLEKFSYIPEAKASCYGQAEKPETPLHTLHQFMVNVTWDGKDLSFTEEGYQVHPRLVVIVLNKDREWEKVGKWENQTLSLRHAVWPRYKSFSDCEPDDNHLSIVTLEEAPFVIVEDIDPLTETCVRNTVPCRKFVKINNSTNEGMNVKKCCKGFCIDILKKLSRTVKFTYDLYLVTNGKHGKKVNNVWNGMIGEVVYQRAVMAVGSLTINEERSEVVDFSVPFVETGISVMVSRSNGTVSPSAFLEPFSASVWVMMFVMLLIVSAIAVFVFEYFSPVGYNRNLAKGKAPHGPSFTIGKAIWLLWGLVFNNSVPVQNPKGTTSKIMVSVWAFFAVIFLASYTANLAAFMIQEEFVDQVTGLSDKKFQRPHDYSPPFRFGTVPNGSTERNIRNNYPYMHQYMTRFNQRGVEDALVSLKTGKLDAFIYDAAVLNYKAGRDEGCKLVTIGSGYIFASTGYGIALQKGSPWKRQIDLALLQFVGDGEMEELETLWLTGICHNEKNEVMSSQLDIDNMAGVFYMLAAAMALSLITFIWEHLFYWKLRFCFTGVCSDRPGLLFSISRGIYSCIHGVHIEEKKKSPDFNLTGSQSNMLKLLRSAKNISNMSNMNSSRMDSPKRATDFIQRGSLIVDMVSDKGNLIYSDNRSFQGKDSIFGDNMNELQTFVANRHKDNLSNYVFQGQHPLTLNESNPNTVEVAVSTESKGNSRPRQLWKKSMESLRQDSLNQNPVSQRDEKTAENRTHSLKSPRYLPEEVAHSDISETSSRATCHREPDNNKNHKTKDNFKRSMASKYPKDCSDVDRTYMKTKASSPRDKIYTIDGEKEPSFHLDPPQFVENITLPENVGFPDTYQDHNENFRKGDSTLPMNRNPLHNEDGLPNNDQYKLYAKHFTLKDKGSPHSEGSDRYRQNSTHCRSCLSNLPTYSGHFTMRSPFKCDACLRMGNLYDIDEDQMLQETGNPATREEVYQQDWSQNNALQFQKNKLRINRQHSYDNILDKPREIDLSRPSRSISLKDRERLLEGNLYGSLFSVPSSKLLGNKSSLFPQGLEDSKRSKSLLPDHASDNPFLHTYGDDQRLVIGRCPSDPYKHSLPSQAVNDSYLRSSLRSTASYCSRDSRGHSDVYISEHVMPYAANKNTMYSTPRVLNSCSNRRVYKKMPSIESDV
Chain of NMDA receptor (NR), channel binding site labeled with [^3H]MK-801 (Q00960 27-1482, other chains not shown): as the sequence (Q00960 27-1482, other chains not shown) above

On to `CC/N=C(\N)c1ccc(-c2ccc(-c3ccc(/C(N)=N/CC)cc3)o2)cc1` [compound 70], for which the “[^3H]MK-801 Ratio IC50 (30 µM spm)/IC50 (no spm)” value (from here on “[^3H]MK-801 Ratio IC50 … (no spm)”) in assay [1] is listed as 2.56 (2). Same read-out and setting: then `CC(C)(C)/N=C(\N)c1ccc(N2CCCN(c3ccc(/C(N)=N/C(C)(C)C)cc3)CC2)cc1` [compound 27], with 16.8 (2); and `N=C(N)c1ccc(-c2ccc(-c3ccc(C(=N)N)s3)s2)s1` [compound 71, 5,5″-Diamidino-2,2′:5′,2″-terthiophene dihydrochloride], with 1.50 (2). As for `CC(C(O)c1ccc(O)cc1)N1CCC(Cc2ccccc2)CC1` (stereo not drawn) [ifenprodil], the “Share of NRs blocked with high affinity” value in assay [2] was 23%. `N=C(N)c1ccc(OCc2ccc(COc3ccc(C(=N)N)cc3)cc2)cc1` [compound 59] had an IC50 in assay [3] of 16.8 µM. `N=C(NCCCO)c1ccc(N2CCCN(c3ccc(/C(N)=N/CCCO)cc3)CC2)cc1` [compound 31]: the “[^3H]MK-801 Ratio IC50 … (no spm)” value in assay [1] is 9.72 (2). Take `N=C(N)c1ccc(NC(=O)CCCC(=O)Nc2ccc(C(=N)N)cc2)cc1` [compound 45]: the IC50 in assay [3] stood at 65.6 µM. For the same molecule, the “Fold weaker than pentamidine” value in assay [1] (no spermine) worked out at 100 fold. Take `N=C(N)c1ccc(OCc2ccccc2COc2ccc(C(=N)N)cc2)cc1` [compound 57]: the IC50 in assay [3] stood at 2.05 µM. As for `N=C(N)c1ccc(N2CCN(c3ccc(C(=N)N)cc3)CC2)cc1` [compound 16], in assay [1], the “[^3H]MK-801 Ratio IC50 … (no spm)” value was 26.2 (2).

Consider `N=C(N)c1ccc(-c2ccc(-c3nc4ccc(C(=N)N)cc4[nH]3)s2)cc1` [compound 74], for which the “[^3H]MK-801 Ratio IC50 … (no spm)” value in assay [1] is 4.14 (2). Same read-out and setting: for `N=C(N)c1ccc(NCCCCCCCCNc2ccc(C(=N)N)cc2)cc1` [compound 44] the value was 4.37 (2); for `N=C(N)c1ccc(NCCCCCCNc2ccc(C(=N)N)cc2)cc1` [compound 42], 5.26 (2); for `N=C(N)c1ccc(NC(=O)CCCCC(=O)Nc2ccc(C(=N)N)cc2)cc1` [compound 46], 3.46 (2). The same measure, in the same setting: for `N=C(N)c1ccc(NC(=O)c2ccc(C(=O)Nc3ccc(C(=N)N)cc3)cc2)cc1` [compound 62] the value was 0.96 (2); for `N=C(N)c1ccc(-c2ccc(-c3ccc(C(=N)N)cc3)c(F)c2)cc1` [compound 73], 4.63 (2). With `N=C(N)c1ccc(SCCOCCSc2ccc(C(=N)N)cc2)cc1` [compound 5], the IC50 in assay [1] (setting [6]) is 23.8 ± 2.7 µM. Besides, the “[^3H]MK-801 Ratio IC50 … (no spm)” value in assay [1] is reported as 20.2 ± 6.1 (3). For the molecule `N=C(N)c1ccc(NCCCNc2ccc(C(=N)N)cc2)cc1` [compound 39], the “[^3H]MK-801 Ratio IC50 … (no spm)” value in assay [1] is given as 17.0 (2). In the case of `N=C(N)c1ccc(OC(=O)c2ccc(C(=O)Oc3ccc(C(=N)N)cc3)cc2)cc1` [compound 60], the IC50 in assay [3] worked out at 38.6 µM. The “[^3H]MK-801 Ratio IC50 … (no spm)” value in assay [1] is recorded as 3.98 (2). Turning to `N=C(N)c1ccc(C(=O)NCCCCCCNC(=O)c2ccc(C(=N)N)cc2)cc1` [compound 55], the “[^3H]MK-801 Ratio IC50 … (no spm)” value in assay [1] is reported as 4.59 (2).

Regarding `CCN(CCN(CC)c1ccc(C(=N)N)cc1)c1ccc(C(=N)N)cc1` [compound 38], the “[^3H]MK-801 Ratio IC50 … (no spm)” value in assay [1] is 11.8 (2). Same read-out and setting: for `N=C(N)c1ccc(NCCCCNc2ccc(C(=N)N)cc2)cc1` [compound 41] the value was 17.2 (2); for `N=C(N)c1ccc(-c2ccc(-c3ccc(-c4ccc(C(=N)N)o4)s3)s2)o1` [compound 75], 4.26 (2). Regarding “1,5-Bis(1-amidino-3-methoxyphenylamino)pentane dihydrochloride [compound 9]”, in assay [4], the IC50 was 4.54 µM. Regarding `CN(CCN(C)c1ccc(C(=N)N)cc1)c1ccc(C(=N)N)cc1` [compound 37], the “[^3H]MK-801 Ratio IC50 … (no spm)” value in assay [1] is 20.9 (2). Still for that read-out and setting: then `N=C(N)c1ccc(NC(=O)c2cccc(C(=O)Nc3ccc(C(=N)N)cc3)c2)cc1` [compound 61], with 0.97 (2). Still for that read-out and setting: for `N=C(N)c1ccc(NC(=O)c2cccc(C(=O)Nc3ccc(C(=N)N)cc3)n2)cc1` [compound 65] the value was 1.22 (2); for `CCCNC(=N)c1ccc(N2CCN(c3ccc(C(=N)NCCC)cc3)CC2)cc1` [compound 19], 21.8 (2); for `CN(CCNc1ccc(C(=N)N)cc1)c1ccc(C(=N)N)cc1` [compound 35], 30.2 (2). As to `N=C(N)c1ccc(OCCCCCOc2ccc(C(=N)N)cc2)cc1` [compound 1, Pentamidine, reference compound], the IC50 in assay [5] was 2.59 µM; in assay [3] it was 32.5 µM; in assay [1] (setting [6]), 24.9 ± 5.7 µM. Also, the “[^3H]MK-801 Ratio IC50 … (no spm)” value in assay [1] is reported as 9.1 ± 2.5 (7).

On to `N=C(N)c1ccc(NCCCCCCCNc2ccc(C(=N)N)cc2)cc1` [compound 43, 1,7-Bis[(1-amidinophenyl)amino]heptane dihydrochloride], for which the “[^3H]MK-801 Ratio IC50 … (no spm)” value in assay [1] is on record as 5.37 (2). Consider “N,N-Bis[2-(1-amidino-3-methoxyphenoxy)ethyl]-4-methylbenzenesulfonamide dihydrochloride [compound 15]”, for which the IC50 in assay [4] was found to be 0.84 µM; in assay [1] (setting [7]), 28.7 ± 4.4 µM. For `N=C(N)NCCCCNC(=N)N` [Arcaine, reference compound], the “[^3H]MK-801 Ratio IC50 … (no spm)” value in assay [1] is on record as 33.6 (2). The same measure, in the same setting: for `N=C(N)c1ccc(C(=O)Nc2cccc(NC(=O)c3ccc(C(=N)N)cc3)n2)cc1` [compound 67] the value was 1.85 (2); for `c1cc(N2CCCN(c3ccc(C4=NCCN4)cc3)CC2)ccc1C1=NCCN1` [compound 32], 30.1 (2).

As to `N=C(NC1CC1)c1ccc(N2CCN(c3ccc(C(=N)NC4CC4)cc3)CC2)cc1` [compound 18], the “[^3H]MK-801 Ratio IC50 … (no spm)” value in assay [1] is given as 21.8 (2). “1,5-Bis[(1-amidinophenyl)N-methylamino]-3-oxapentane [compound 11]”: the IC50 amounted to 21.9 ± 5.2 µM in assay [4] and 12.5 ± 1.8 µM in assay [1] (setting [7]). For the same molecule, the “[^3H]MK-801 Ratio IC50 … (no spm)” value in assay [1] is on record as 15.2 ± 2.2 (3).
